Reference: paper PMC11946789, “Two Amino Acid Substitutions Improve the Pharmacological Profile of the Snake Venom Peptide Mambalgin” (Toxins, 2025)
Bridges are numbered along the chain shown (N, C = ends). Where no end group is shown, it is not given here.

Key:
[1] = test system: ASIC; test: TEVC recordings, ASIC1-containing channel not specified; type: cell-based, rat; conditions: channel and pH not given; for Hill coefficient: Hill equation fit
Experimental: Whole-cell ASIC currents were measured using the two-electrode voltage clamp (TEVC) method with a GeneClamp 500 amplifier (Axon Instruments, Union City, NJ, USA). The holding potential maintained at –50 mV. Glass microelectrodes (0.5–2.5 MΩ) were filled with 3 M KCl solution, and ND96 (pH 7.4) was used as the external bath solution. ASIC currents were activated by rapidly switching the external solution from ND96 to either ND96 containing 10 mM MOPS (pH 6.7) or ND96 containing 10 mM MES (pH 5.5). Solution exchange was controlled using a custom-built computer-driven valve system. Data were filtered at 10 Hz and digitized at 100 Hz using an L780M ADC (LCard, Moscow, Russia). Peptides Mamb and Mamb-AL were applied for 30 s at pH 7.4 prior to acid stimulation of the channels.
Electrophysiological and behavioral data were analyzed using OriginPro 8.6.0 (OriginLab, Washington, DC, USA). […] The rate of current decay was fitted using a single exponential decay function: F(x) = A*eˆ(−x/τdes) + A0, where A0 is the minimal current response and τdes is the decay constant. Statistical significance between the Mamb and Mamb-AL groups was determined using an unpaired t-test. Data are presented as mean ± SEM.

[2] = test system: heteromeric rat ASIC1a/3 channels (rASIC1a/3); test: TEVC recordings, heteromeric rASIC1a/3; type: cell-based; conditions: for inhibition of rASIC1a/3: 100 nM, pH 5.5 stimulus, conditioning pH 7.4, % of control currents, n = 5, p < 0.05 Mamb-AL vs Mamb, unpaired t-test
From the text: Figure 4 The inhibitory effect of Mamb-AL on other ASIC1-containing channels exceeds that of Mamb. (A,C) Representative current traces showing the effects of various concentrations of Mamb (left panels) and Mamb-AL (right panels) on homomeric rat ASIC1b (rASIC1b) (A) and heteromeric rat ASIC1a/3 (rASIC1a/3) channels (C). Currents were evoked by a pH 5.5 stimulus following a conditioning pH of 7.4, with peptides applied for 30 s prior to the pH stimulus. (B) Dose–response curves for the inhibitory effects of Mamb and Mamb-AL on rASIC1b. Each data point represents measurements from 5 to 7 cells. (D) Bar graph quantifying the inhibitory effects of Mamb and Mamb-AL on rASIC1a/3, shown as a percentage of the corresponding control currents (n = 5). Data are presented as mean ± SEM; * p< 0.05, unpaired t-test. […] Data are shown as mean ± SEM; ns indicates no significant difference vs. control (dotted horizontal line), paired t-test.
Female X.laevis frogs were anesthetized with 0.17% ethyl 3-amino-benzoate methane sulfonate (MS222). A small ovarian section was surgically removed via an abdominal incision and placed in ND96 medium (96 mM NaCl, 2 mM KCl, 1.8 mM CaCl2, 1 mM MgCl2, and 5 mM HEPES, pH 7.4, adjusted with NaOH). […] Each animal underwent surgeries at intervals of no less than three months. Connective tissue and follicular sheaths were removed by incubating ovarian tissue in calcium-free ND96 medium containing collagenase (1 mg/mL) for 2 h at 21 °C. Healthy, mature stage IV and V oocytes were selected and stored in ND96 medium. […]
(§1) Whole-cell ASIC currents were measured using the two-electrode voltage clamp (TEVC) method with a GeneClamp 500 amplifier (Axon Instruments, Union City, NJ, USA). […]
(§2) Electrophysiological and behavioral data were analyzed using OriginPro 8.6.0 (OriginLab, Washington, DC, USA). […] Statistical significance between the Mamb and Mamb-AL groups was determined using an unpaired t-test. […]

[3] = test system: acetic acid-induced writhes; test: Acetic acid-induced writhing pain test; type: in vivo, male ICR mice; conditions: for decrease in number of writhes: 90 min before i.p. 0.6% acetic acid, 15 min, n = 8, vs saline control (41 ± 8 writhes); for number of writhes (result in words): 0.01 and 0.1 mg/kg, 90 min prior to testing
From the text: ASIC channels play a critical role in the perception of acid-induced pain [8, 38]. As effective inhibitors of ASIC1-containing channels, Mamb and Mamb-AL could serve as potential therapeutics for this type of pathology. To evaluate this hypothesis, we employed the acetic acid-induced writhing test as an in vivo model of acute pain. In this model, intraperitoneal administration of 0.6% acetic acid provokes a stereotypical behavior in mice characterized by abdominal contractions (acetic acid-induced writhes).
Figure 5 Analgesic effect of peptides Mamb and Mamb-AL in an acute pain model. Peptides were administered intramuscularly 90 min before testing. Their efficacy was assessed using the acetic acid-induced writhing test, where the number of writhes was counted after intraperitoneal administration of 0.6% acetic acid. Results are presented as mean ± SD (n = 8 for each group). Statistical analysis was performed using one-way ANOVA followed by Dunnett’s post hoc test. * p< 0.05, ** p< 0.01, *** p< 0.005, **** p< 0.001 indicate significant differences compared with the control group, and ns indicates no significant difference.
The number of writhes in the control group treated with saline was 41 ± 8. Administration of wild-type peptide at doses of 0.01 and 0.1 mg/kg decreased the number of writhes by approximately 29% and 27%, respectively.
Adult (8–10 weeks) male ICR mice (25–30 g, Animal Breeding Facility Branch of the Shemyakin–Ovchinnikov Institute of Bioorganic Chemistry, Russian Academy of Sciences, Pushchino, Russia) were housed in Type 3 standard polycarbonate cages (820 cm^2) with LIGNOCEL BK 8/15 bedding (JRS, Rosenberg, Germany) under controlled conditions (23 ± 2 °C, 12h light–dark cycle) with ad libitum access to food and water. Test substances were dissolved in saline and administered intramuscularly 90 min before testing. The visceral pain assay was performed as described by. Distinct groups (n = 8 for each group) of mice were administered with 0.6% acetic acid in saline intraperitoneally (i.p.). Writhing behavior was recorded for 15 min after the mice were placed in transparent glass cylinders. A blinded observer assessed the responses. No formal power analysis was performed prior to the experiments, as the effect size and variability of the peptide treatment were unknown. However, because the initial results were highly significant, no additional animals were used. No animals were excluded from the analysis. Peptides (Mamb and Mamb-AL) were compared with a saline control group using analysis of variance (ANOVA) with post hoc Dunnett’s test. Data are presented as mean ± standard deviation (SD).

[4] = test system: homomeric rat ASIC3 channels; test: TEVC recordings, homomeric ASIC3; type: cell-based; conditions: pH stimulus; n = 5; ns vs control, paired t-test
From the text: Figure 4 The inhibitory effect of Mamb-AL on other ASIC1-containing channels exceeds that of Mamb. (A,C) Representative current traces showing the effects of various concentrations of Mamb (left panels) and Mamb-AL (right panels) on homomeric rat ASIC1b (rASIC1b) (A) and heteromeric rat ASIC1a/3 (rASIC1a/3) channels (C). Currents were evoked by a pH 5.5 stimulus following a conditioning pH of 7.4, with peptides applied for 30 s prior to the pH stimulus. (B) Dose–response curves for the inhibitory effects of Mamb and Mamb-AL on rASIC1b. Each data point represents measurements from 5 to 7 cells. (D) Bar graph quantifying the inhibitory effects of Mamb and Mamb-AL on rASIC1a/3, shown as a percentage of the corresponding control currents (n = 5). Data are presented as mean ± SEM; * p< 0.05, unpaired t-test. […] Data are shown as mean ± SEM; ns indicates no significant difference vs. control (dotted horizontal line), paired t-test. […]
as §1, §2

LKCFQHGKVVTCHRDMKFCYHNTGMPFRNLKLILQGCSSSCSETENNKCCSTDRCNK (disulfide 3-19, 12-37, 41-49, 50-55 (inferred)) [Mamb]
Hill coefficient [1]: 1.54 ± 0.03
inhibition of rASIC1a/3 [2]: 13%
decrease in number of writhes ([3]; 0.01 mg/kg intramuscular): approximately 29%
decrease in number of writhes ([3]; 0.1 mg/kg intramuscular): ~27%
number of writhes (result in words) [3]: significantly reduced the number of writhes
effect on rat ASIC3 channels [4]: neither wild-type Mamb nor Mamb-AL exhibited any detectable effects

LKCYQHGKVVTCHRDAKFCYHNTGLPFRNLKLILQGCSSSCSETENNKCCSTDRCNK (disulfide 3-19, 12-37, 41-49, 50-55 (inferred)) [Mamb-AL]
Hill coefficient [1]: 1.4 ± 0.1
maximum inhibition (in words) ([1]; compared with wild-type peptide): unable to fully block channel activity, leading to a reduced maximum inhibition rate
inhibition of rASIC1a/3 [2]: 32%
increase in inhibition of heteromeric ASIC1a/3 channels ([2]; compared with Mamb): two-fold increase
decrease in number of writhes ([3]; 0.01 mg/kg intramuscular): ~ 41%
decrease in number of writhes ([3]; 0.1 mg/kg intramuscular): ~ 34%
analgesic effect relative to wild-type Mamb ([3]; 0.01 and 0.1 mg/kg intramuscular): trend toward a stronger analgesic effect than the wild-type Mamb
number of writhes (result in words) [3]: significantly reduced the number of writhes
effect on rat ASIC3 channels [4]: neither wild-type Mamb nor Mamb-AL exhibited any detectable effects
